Results: US7767659B2, “Synthesis of naturally occurring ecteinascidins and related compounds” (Pharma Mar, S.A., priority 2002, dated 2010)
Where two headings read alike, the source gives them in different places.

Experiments:
HMEC1 = assay: Inhibition of cells growth by colorimetric assay (SRB); details: for TGI H-MEC-1 / H-MEC-1 TGI: SRB, 48 hours exposure; for GI50: Homo sapiens, HMEC-1, 48 h
Outline: (§1)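 Colorimetric SRB read (490 nm) on triplicate wells after 48 h at 37 °C, 5% CO2. Dose range 10 to 10^−8 μg/ml; 5×10^3 cells/well pre-attached 18 h.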

[1] = as above; details: human
Outline: as §1

A-549 = assay: cells; details: Homo sapiens, A549, 48 h
Outline: as §1

HT-29 = assay: cells; details: Homo sapiens, HT-29, 48 h
Outline: as §1

IGROV-ET = assay: Inhibition of cells growth by colorimetric assay (SRB); details: Homo sapiens, 48 h; for GI50: read-out: IGROV-ET GI50; for CC50: read-out: IGROV-ET LC50; for IC (TGI): read-out: IGROV-ET TGI
Outline: as §1

SK-BR-3 = assay: as above; details: Homo sapiens, SK-BR-3, 48 h
Outline: as §1

IGROV-1 = assay: as above; details: Homo sapiens, IGROV-1, 48 h; for GI50: read-out: IGROV GI50; for CC50: read-out: IGROV LC50; for IC (TGI): read-out: IGROV TGI
Outline: as §1

LoVo-Dox = assay: as above; details: Homo sapiens, 48 h; for GI50: read-out: LOVO-DOX GI50; for CC50: read-out: LOVO-DOX LC50; for IC (TGI): read-out: LOVO-DOX TGI
Outline: as §1

DU-145 = assay: as above; details: Homo sapiens, DU-145, 48 h; for GI50: read-out: DU145 GI50; for CC50: read-out: DU145 LC50; for IC (TGI): read-out: DU145 TGI
Outline: as §1

SK-OV-3 = assay: as above; details: for GI50 / CC50: Homo sapiens, SK-OV-3, 48 h; for GI50: read-out: SK-OV3 GI50; for CC50: read-out: SK-OV3 LC50; for SK-OV3 TGI: SRB, 48 hours exposure
Outline: as §1

PANC-1 = assay: as above; details: Homo sapiens, PANC-1, 48 h; for GI50: read-out: PANC-1 GI50; for CC50: read-out: PANC-1 LC50; for IC (TGI): read-out: PANC-1 TGI
Outline: as §1

SK-MEL-28 = assay: as above; details: Homo sapiens, SK-MEL-28, 48 h; for GI50: read-out: MEL-28 GI50; for CC50: read-out: MEL-28 LC50; for IC (TGI): read-out: MEL-28 TGI
Outline: as §1

K-562 = assay: as above; details: Homo sapiens, K562, 48 h; for GI50: read-out: K562 GI50; for CC50: read-out: K562 LC50; for IC (TGI): read-out: K562 TGI
Outline: as §1

LNCaP = assay: as above; details: Homo sapiens, LNCaP, 48 h; for GI50: read-out: LNCAP GI50; for CC50: read-out: LNCAP LC50; for IC (TGI): read-out: LNCAP TGI
Outline: as §1

LoVo = assay: cells; details: Homo sapiens, LoVo, 48 h; for GI50: read-out: LOVO GI50; for CC50: read-out: LOVO LC50; for IC (TGI): read-out: LOVO TGI
Outline: as §1

For `COc1cc2c(cc1O)CCN[C@]21CS[C@@H]2c3c(OC(C)=O)c(C)c4c(c3[C@H](COC1=O)N1C2C2N[C@@H](Cc3cc(C)c(OC)c(O)c32)[C@@H]1C#N)OCO4` (stereo partly drawn) [compound 15], the “TGI H-MEC-1” value (HMEC1) was 1.32E−08 Molar, the GI50 (HMEC1; read-out: GI50 H-MEC-1) was 0.556 nM and the CC50 at 48 h [1] was 4440 nM. For the same molecule, the GI50 (A-549; read-out: GI50 A549) was 2 nM, the CC50 (A-549; read-out: LC50 A549) was 176 nM and the IC (TGI) (A-549; read-out: TGI A549) was 7.35 nM. It also gave a GI50 (HT-29; read-out: GI50 HT29) of 0.484 nM, a CC50 (HT-29; read-out: LC50 HT29) of 3130 nM and an IC (TGI) (HT-29; read-out: TGI HT29) of 5.35 nM.
With `C=CCN1[C@@H]2c3c(cc(C)c(OC)c3O)C[C@H]1[C@H](C#N)N1C2[C@@H]2SC[C@]3(NCCc4cc(O)c(OC)cc43)C(=O)OC[C@H]1c1c3c(c(C)c(OC(C)=O)c12)OCO3` (stereo partly drawn) [compound 14] the “TGI H-MEC-1” value (HMEC1) was 1.25E−05 Molar, the GI50 (HMEC1; read-out: GI50 H-MEC-1) was 3000 nM and the CC50 at 48 h [1] was 12500 nM. For the same molecule, the GI50 (A-549; read-out: GI50 A549) was 2230 nM, the CC50 (A-549; read-out: LC50 A549) was 11700 nM and the IC (TGI) (A-549; read-out: TGI A549) was 5110 nM. For the same molecule, the GI50 (HT-29; read-out: GI50 HT29) was 1770 nM, the CC50 (HT-29; read-out: LC50 HT29) was 12500 nM and the IC (TGI) (HT-29; read-out: TGI HT29) was 6390 nM.
In the case of `COc1cc2c(cc1O)CCN[C@]21CS[C@@H]2c3c(OC(C)=O)c(C)c4c(c3[C@H](COC1=O)N1C[C@@H]3Cc5cc(C)c(OC)c(O)c5C(C21)N3C)OCO4` (stereo partly drawn) [Et-745], the “H-MEC-1 TGI” value (HMEC1) is reported as 3.67E−06 Molar, the GI50 (HMEC1; read-out: H-MEC-1 GI50) is reported as 634 nM and the GI50 (IGROV-ET) is reported as 3700 nM. The CC50 (IGROV-ET) was 13400 nM, the IC (TGI) (IGROV-ET) was 8450 nM and the GI50 (SK-BR-3; read-out: SK-BR3 GI50) was 629 nM. The CC50 (SK-BR-3; read-out: SK-BR3 LC50) was 13400 nM, the IC (TGI) (SK-BR-3; read-out: SK-BR3 TGI) was 3150 nM and the GI50 (IGROV-1) was 774 nM. The CC50 (IGROV-1) was 13400 nM, the IC (TGI) (IGROV-1) was 3260 nM and the GI50 (LoVo-Dox) was 6250 nM. It also gave a CC50 (LoVo-Dox) of 13400 nM, an IC (TGI) (LoVo-Dox) of 13400 nM and a CC50 at 48 h [1] of 13400 nM. It also gave a GI50 (DU-145) of 488 nM, a CC50 (DU-145) of 13400 nM and an IC (TGI) (DU-145) of 2670 nM. For the same molecule, the GI50 (SK-OV-3) was 1320 nM, the CC50 (SK-OV-3) was 13400 nM and the “SK-OV3 TGI” value (SK-OV-3) was 5.48E−06 Molar. It also gave a GI50 (PANC-1) of 1320 nM, a CC50 (PANC-1) of 13400 nM and an IC (TGI) (PANC-1) of 9220 nM. The GI50 (SK-MEL-28) was 602 nM, the CC50 (SK-MEL-28) was 8620 nM and the IC (TGI) (SK-MEL-28) was 2210 nM. The GI50 (K-562) was 884 nM, the CC50 (K-562) was 13400 nM and the IC (TGI) (K-562) was 3900 nM. For the same molecule, the GI50 (LNCaP) was 652 nM, the CC50 (LNCaP) was 9810 nM and the IC (TGI) (LNCaP) was 2390 nM. It also gave a GI50 (LoVo) of 5550 nM, a CC50 (LoVo) of 13400 nM and an IC (TGI) (LoVo) of 13400 nM. It also gave a GI50 (A-549; read-out: A549 GI50) of 743 nM, a CC50 (A-549; read-out: A549 LC50) of 13400 nM and an IC (TGI) (A-549; read-out: A549 TGI) of 4770 nM. For the same molecule, the GI50 (HT-29; read-out: HT29 GI50) was 522 nM, the CC50 (HT-29; read-out: HT29 LC50) was 13400 nM and the IC (TGI) (HT-29; read-out: HT29 TGI) was 2650 nM.
Work on `COc1cc2c(cc1O)CCN[C@]21CS[C@@H]2c3c(OC(C)=O)c(C)c4c(c3[C@H](CNC1=O)N1C2[C@H]2c3c(cc(C)c(OC)c3O)C[C@@H]([C@@H]1C#N)N2C)OCO4` (stereo partly drawn) [compound 76] yielded a GI50 (IGROV-ET) of 513 nM, a CC50 (IGROV-ET) of 1300 nM and an IC (TGI) (IGROV-ET) of 924 nM. It also gave a GI50 (IGROV-1) of 197 nM, a CC50 (IGROV-1) of 5250 nM and an IC (TGI) (IGROV-1) of 648 nM. It also gave a GI50 (LoVo-Dox) of 2660 nM, a CC50 (LoVo-Dox) of 13000 nM and an IC (TGI) (LoVo-Dox) of 8130 nM. It also gave a GI50 (DU-145) of 492 nM, a CC50 (DU-145) of 13000 nM and an IC (TGI) (DU-145) of 1340 nM. The GI50 (SK-OV-3) was 547 nM, the CC50 (SK-OV-3) was 13000 nM and the “SK-OV3 TGI” value (SK-OV-3) was 1.90E−06 Molar. It also gave a GI50 (PANC-1) of 695 nM, a CC50 (PANC-1) of 13000 nM and an IC (TGI) (PANC-1) of 4970 nM. It also gave a GI50 (SK-MEL-28) of 238 nM, a CC50 (SK-MEL-28) of 1270 nM and an IC (TGI) (SK-MEL-28) of 549 nM. The GI50 (K-562) was 26.9 nM, the CC50 (K-562) was 13000 nM and the IC (TGI) (K-562) was 130 nM. It also gave a GI50 (LNCaP) of 46.6 nM, a CC50 (LNCaP) of 257 nM and an IC (TGI) (LNCaP) of 80.7 nM. For the same molecule, the GI50 (LoVo) was 274 nM, the CC50 (LoVo) was 1300 nM and the IC (TGI) (LoVo) was 683 nM. It also gave a GI50 (A-549; read-out: A549 GI50) of 413 nM, a CC50 (A-549; read-out: A549 LC50) of 4650 nM and an IC (TGI) (A-549; read-out: A549 TGI) of 840 nM. For the same molecule, the GI50 (HT-29; read-out: HT29 GI50) was 627 nM, the CC50 (HT-29; read-out: HT29 LC50) was 13000 nM and the IC (TGI) (HT-29; read-out: HT29 TGI) was 1300 nM.
With `COc1c(C)cc2c(c1O)[C@@H]1C3[C@@H]4SCC(=O)C(=O)NC[C@@H](c5c6c(c(C)c(OC(C)=O)c54)OCO6)N3[C@@H](C#N)[C@H](C2)N1C` (stereo partly drawn) [compound 75] the “H-MEC-1 TGI” value (HMEC1) was 1.64E−06 Molar, the GI50 (HMEC1; read-out: H-MEC-1 GI50) was 279 nM and the CC50 at 48 h [1] was 16100 nM. For the same molecule, the GI50 (A-549; read-out: A549 GI50) was 889 nM, the CC50 (A-549; read-out: A549 LC50) was 12700 nM and the IC (TGI) (A-549; read-out: A549 TGI) was 4010 nM. The GI50 (HT-29; read-out: HT29 GI50) was 330 nM, the CC50 (HT-29; read-out: HT29 LC50) was 16100 nM and the IC (TGI) (HT-29; read-out: HT29 TGI) was 933 nM.
